Test results from patent US20240262822A1, “WDR5 INHIBITORS AND MODULATORS” (Vanderbilt University, priority 2021, published 2024).
Where two headings read alike, the source gives them in different places.

Key:
[1] = test system: MV4:11 human cancer cell lines; experiment: Cellular viability / anti-proliferative activity, CellTiter-Glo, 5 day protocol; format: cell-based; conditions: Homo sapiens, MV4-11, 120 h, 5 day incubation
In short: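 MV-4-11 cells in IMDM/10% FBS, 200 cells per well, exposed to 22-point 2-fold dilutions from 30 μM top (0.3% DMSO) for 5 days. Viability by CellTiter-Glo luminescence; GI50 from sigmoidal dose-response fit, mean of at least two replicates.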

WDR5 = molecular target: T1, WDR5 (Homo sapiens, UniProt P61964); experiment: Time Resolved-Fluorescence Energy Transfer (TR-FRET) competition assay, displacement of 10mer-Thr-FAM probe from His-tagged WDR5; format: binding; conditions: WDR5-His tag 2 nM, 10mer-Thr-FAM 150 nM, 60 minutes at room temperature
T1 construct: WDR5-His Tag (A23, residues 24-334) is expressed and purified in our lab; made in house
In short: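 Competitive TR-FRET using 2 nM His-tagged WDR5 (residues 24-334), 1 nM Tb-anti-His antibody and 150 nM 10mer-Thr-FAM probe; compounds in a 10-point, 5-fold series from 5 μM, ≤1% DMSO. Incubated 60 min at room temperature in PBS with 300 mM NaCl, 0.5 mM TCEP, 0.1% CHAPS, pH 7.2; 520/495 nm emission gave IC50, converted to Ki by the Wang equation.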

[2] = MV4:11 cells, read-out: GI50 for representative compounds on cellular proliferation of MV4:11 human cancer cell lines
[3] = read-out: Ki for Exemplified Compounds for Inhibition of WDR5 by TR-FRET assay
[4] = MV4;11 cells, read-out: GI50 for additional WDR5 inhibitor compounds on cellular proliferation of MV4;11 human cancer cell lines
[5] = read-out: Ki for additional WDR5 inhibitor compounds for Inhibition of WDR5 by TR-FRET assay

CCc1cnc2c(c1)C(N1CCc3c(cc(Cn4ccnc4)cc3-c3cn(C)nc3C(F)(F)F)C1=O)COC2 (centres unmarked) [Example 21, 7-((1H-Imidazol-1-yl)methyl)-2-(3-ethyl-5,8-dihydro-6H-pyrano[3,4-b]pyridin-5-yl)-5-(1-methyl-3-(trifluoromethyl)-1H-pyrazol-4-yl)-3,4-dihydroisoquinolin-1(2H)-one] was tested, and the GI50 [1, 2] was < 20 nM and the Ki (WDR5; [3]) was < 0.02 nM.

COc1cc2nc(C3CC3)nc(N3CCc4c(cc(Cn5ccnc5)cc4-c4cn(C)nc4C(F)(F)F)C3=O)c2cc1OC [Example 64, 7-((1H-Imidazol-1-yl)methyl)-2-(2-cyclopropyl-6,7-dimethoxyquinazolin-4-yl)-5-(1-methyl-3-(trifluoromethyl)-1H-pyrazol-4-yl)-3,4-dihydroisoquinolin-1(2H)-one] was tested, and the GI50 [1, 2] was < 20 nM and the Ki (WDR5; [3]) was < 0.02 nM.

In the case of COc1cc(C(=O)Nc2cn[nH]c2)c2nc(C)cc(N3CCc4c(cc(Cn5ccnc5)cc4-c4cn(C)nc4C(F)(F)F)C3=O)c2c1 [Compound B-201], the GI50 [1, 4] is reported as 23 nM and the Ki (WDR5; [5]) is reported as 0.023 nM.

For COc1ccc2nccc(N3CCc4c(cc(Cn5ccnc5)cc4-c4cn(C)nc4C(F)(F)F)C3=O)c2n1 [Example 17, 7-((1H-Imidazol-1-yl)methyl)-2-(6-methoxy-1,5-naphthyridin-4-yl)-5-(1-methyl-3-(trifluoromethyl)-1H-pyrazol-4-yl)-3,4-dihydroisoquinolin-1(2H)-one], the GI50 [1, 2] was 362 nM and the Ki (WDR5; [3]) was 0.03 nM.

With CCc1cc2c(N3CCc4c(cc(Cn5ccnc5)cc4-c4cn(C)nc4C(F)(F)F)C3=O)ccnc2c(N2CCOCC2)n1 [Example 44, 7-((1H-Imidazol-1-yl)methyl)-2-(6-ethyl-8-morpholino-1,7-naphthyridin-4-yl)-5-(1-methyl-3-(trifluoromethyl)-1H-pyrazol-4-yl)-3,4-dihydroisoquinolin-1(2H)-one] the GI50 [1, 2] was < 20 nM and the Ki (WDR5; [3]) was < 0.02 nM.

With CCc1cc2c(N3CCc4c(cc(Cn5ccnc5C)cc4-c4cn(C)nc4C(F)(F)F)C3=O)ccnc2c(OC)n1 [Example 10, 2-(6-Ethyl-8-methoxy-1,7-naphthyridin-4-yl)-7-((2-methyl-1H-imidazol-1-yl)methyl)-5-(1-methyl-3-(trifluoromethyl)-1H-pyrazol-4-yl)-3,4-dihydroisoquinolin-1(2H)-one] the GI50 [1, 2] was < 20 nM and the Ki (WDR5; [3]) was < 0.02 nM.

With CCc1cc2c(N3CCc4c(cc(Cn5ccnc5)cc4-c4cn(C)nc4C(F)(F)F)C3=O)ccnc2c(-n2cccc2)n1 [Example 35, 7-((1H-Imidazol-1-yl)methyl)-2-(6-ethyl-8-(1H-pyrrol-1-yl)-1,7-naphthyridin-4-yl)-5-(1-methyl-3-(trifluoromethyl)-1H-pyrazol-4-yl)-3,4-dihydroisoquinolin-1(2H)-one] the GI50 [1, 2] was 47 nM and the Ki (WDR5; [3]) was < 0.02 nM.

In the case of CCc1cc(OC)c2nncc(N3CCc4c(cc(Cn5ccnc5C)cc4-c4cn(C)nc4C(F)(F)F)C3=O)c2c1 [Example 14, 2-(6-Ethyl-8-methoxycinnolin-4-yl)-7-((2-methyl-1H-imidazol-1-yl)methyl)-5-(1-methyl-3-(trifluoromethyl)-1H-pyrazol-4-yl)-3,4-dihydroisoquinolin-1(2H)-one], the GI50 [1, 2] is reported as < 20 nM and the Ki (WDR5; [3]) is reported as < 0.02 nM.

With CCc1cc2c(N3CCc4c(cc(Cn5ccnc5)cc4-c4cn(C)nc4C(F)(F)F)C3=O)ccnc2c(C(=O)NC)n1 [Example 20, 4-(7-((1H-Imidazol-1-yl)methyl)-5-(1-methyl-3-(trifluoromethyl)-1H-pyrazol-4-yl)-1-oxo-3,4-dihydroisoquinolin-2(1H)-yl)-6-ethyl-N-methyl-1,7-naphthyridine-8-carboxamide] the GI50 [1, 2] was 290 nM and the Ki (WDR5; [3]) was < 0.02 nM.

With CCc1cc(OC)c2nc(C)nc(N3CCc4c(cc(Cn5ccnc5)cc4-c4cn(C)nc4C(F)(F)F)C3=O)c2c1 [Example 51, 7-((1H-Imidazol-1-yl)methyl)-2-(6-ethyl-8-methoxy-2-methylquinazolin-4-yl)-5-(1-methyl-3-(trifluoromethyl)-1H-pyrazol-4-yl)-3,4-dihydroisoquinolin-1(2H)-one] the GI50 [1, 2] was < 20 nM and the Ki (WDR5; [3]) was 0.022 nM.

CCc1nc(N2CCc3c(cc(Cn4ccnc4)cc3-c3cn(C)nc3C(F)(F)F)C2=O)c2cc(OC)c(OC)cc2n1 [Example 63, 7-((1H-Imidazol-1-yl)methyl)-2-(2-ethyl-6,7-dimethoxyquinazolin-4-yl)-5-(1-methyl-3-(trifluoromethyl)-1H-pyrazol-4-yl)-3,4-dihydroisoquinolin-1(2H)-one] was tested, and the GI50 [1, 2] was < 20 nM and the Ki (WDR5; [3]) was < 0.02 nM.

With CCc1cc(N2CCN(C3COC3)C(=O)C2)c2nc(C)cc(N3CCc4c(cc(Cn5ccnc5)cc4-c4cn(C)nc4C(F)(F)F)C3=O)c2c1 [Compound B-132] the GI50 [1, 4] was < 20 nM and the Ki (WDR5; [5]) was 0.03 nM.

With CCc1cc2c(N3CCc4c(cc(Cn5ccnc5)cc4-c4cn(C)nc4C(F)(F)F)C3=O)ccnc2c(N2CCN(C)CC2)n1 [Example 46, 7-((1H-Imidazol-1-yl)methyl)-2-(6-ethyl-8-(4-methylpiperazin-1-yl)-1,7-naphthyridin-4-yl)-5-(1-methyl-3-(trifluoromethyl)-1H-pyrazol-4-yl)-3,4-dihydroisoquinolin-1(2H)-one] the GI50 [1, 2] was < 20 nM and the Ki (WDR5; [3]) was < 0.02 nM.

Work on CCc1cc(C2CCOCC2)c2nc(C)cc(N3CCc4c(cc(Cn5ccnc5)cc4-c4cn(C)nc4C(F)(F)F)C3=O)c2c1 [Compound B-165] yielded a GI50 [1, 4] of 129 nM and a Ki (WDR5; [5]) of 0.042 nM.

In the case of CCc1cc2c(N3CCc4c(cc(Cn5ccnc5)cc4-c4cn(C)nc4C(F)(F)F)C3=O)ccnc2c(=O)[nH]1 [Example 7, 4-(7-((1H-Imidazol-1-yl)methyl)-5-(1-methyl-3-(trifluoromethyl)-1H-pyrazol-4-yl)-1-oxo-3,4-dihydroisoquinolin-2(1H)-yl)-6-ethyl-1,7-naphthyridin-8(7H)-one and 7-((1H-imidazol-1-yl)methyl)-2-(6-ethyl-8-hydroxy-1,7-naphthyridin-4-yl)-5-(1-methyl-3-(trifluoromethyl)-1H-pyrazol-4-yl)-3,4-dihydroisoquinolin-1(2H)-one mixture], the GI50 [1, 2] is reported as 1990 nM and the Ki (WDR5; [3]) is reported as < 0.02 nM.

COc1cc2c(nc1C)CCCC2N1CCc2c(cc(Cn3ccnc3)cc2-c2cn(C)nc2C(F)(F)F)C1=O (centres unmarked) [Example 22, 7-((1H-Imidazol-1-yl)methyl)-2-(3-methoxy-2-methyl-5,6,7,8-tetrahydroquinolin-5-yl)-5-(1-methyl-3-(trifluoromethyl)-1H-pyrazol-4-yl)-3,4-dihydroisoquinolin-1(2H)-one] was tested, and the GI50 [1, 2] was < 20 nM and the Ki (WDR5; [3]) was < 0.02 nM.

CCc1cc(C2CCOCC2)c2nccc(N3CCc4c(cc(Cn5ccnc5)cc4-c4cn(C)nc4C(F)(F)F)C3=O)c2c1 [Compound B-36] was tested, and the GI50 [1, 4] was 23 nM and the Ki (WDR5; [5]) was < 0.02 nM.

CCc1cc2c(N3CCc4c(cc(Cn5ccnc5)cc4-c4cn(C)nc4C(F)(F)F)C3=O)ccnc2c(-c2ccncc2)n1 [Example 45, 7-((1H-Imidazol-1-yl)methyl)-2-(6-ethyl-8-(pyridin-4-yl)-1,7-naphthyridin-4-yl)-5-(1-methyl-3-(trifluoromethyl)-1H-pyrazol-4-yl)-3,4-dihydroisoquinolin-1(2H)-one] was tested, and the GI50 [1, 2] was 21 nM and the Ki (WDR5; [3]) was < 0.02 nM.

With CCn1nc(C)cc1-c1cc(Cn2ccnc2)cc2c1CCN(c1nc(C)nc3cc(OC)c(OC)cc13)C2=O [Example 58, 7-((1H-Imidazol-1-yl)methyl)-2-(6,7-dimethoxy-2-methylquinazolin-4-yl)-5-(1-ethyl-3-methyl-1H-pyrazol-5-yl)-3,4-dihydroisoquinolin-1(2H)-one] the GI50 [1, 2] was 195 nM and the Ki (WDR5; [3]) was 0.03 nM.
